The results in this text go back to patent publication US12281122B1, “PI3K inhibitors” (Cogent Biosciences, Inc., priority 2023, dated 2025).

Where only a bound is given, the exact number is not on record here.

The term IC50 denotes the concentration that gives 50% inhibition. Low readings indicate inhibition by little substance, high ones a need for much substance.

For assay [1], the system named is T47D (PI3Kα-H1047R) cell line. Kind of assay: HTRF phospho-AKT(S473) cell assay in T47D cells. It is filed as cell-based, human. Put shortly: (§1)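 HTRF read-out of phospho-AKT(S473) in lysates gave IC50 values after 2 h compound exposure at 37° C. Dose series was 12 points at 1:3, topping at 5 μM for T47D and 10 μM for SKBR3. Only SKBR3 received 70 ng/ml PDGF-BB during the last 15 minutes.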
A general note: TR-FRET usually uses a lanthanide donor and a delayed reading to cut background.

For assay [2], the system named is SKBR3 (PI3Kα-Wild Type) cell line. Kind of assay: HTRF phospho-AKT(S473) cell assay in SKBR3 cells. It is filed as cell-based, human. Put shortly: as §1
The mark [3] stands for this setting: Homo sapiens; T47D (PI3Kα-H1047R) cells, HTRF phospho-AKT(S473), 2 hours compound incubation.
[4] abbreviates: Homo sapiens, SK-BR-3; SKBR3 (PI3Kα-Wild Type) cells, HTRF phospho-AKT(S473), 2 hours compound incubation, PDGF-BB stimulated.
Where [5] appears, read: Homo sapiens; HTRF phospho-AKT(S473), T47D (PI3Kα-H1047R) cells, 2 hours compound incubation.
The mark [6] stands for this setting: Homo sapiens, SK-BR-3; HTRF phospho-AKT(S473), SKBR3 (PI3Kα-Wild Type) cells, 2 hours compound incubation, PDGF-BB stimulated.

Consider `Cc1cc([C@@H](C)Nc2ccc(Cl)nc2C(=O)NS(C)(=O)=O)c2nc(N3C4CCC3CN(c3cnn(C)c3)C4)n(C)c(=O)c2c1` [Compound 269, 6-chloro-3-(((1R)-1-(3,6-dimethyl-2-(3-(1-methyl-1H-pyrazol-4-yl)-3,8-diazabicyclo[3.2.1]octan-8-yl)-4-oxo-3,4-dihydroquinazolin-8-yl)ethyl)amino)-N-(methylsulfonyl) picolinamide], for which the IC50 in assay [1] (setting [3]) was below 250 nM; in assay [2] (setting [4]), 1000 to 5000 nM.

As for `COc1ccccc1-n1ncc2c1CN(c1nc3c([C@@H](C)Nc4ccc(Cl)nc4C(=O)NS(C)(=O)=O)cc(C)cc3c(=O)n1C)C2` [Compound 326, (R)-6-chloro-3-((1-(2-(1-(2-methoxyphenyl)-4,6-dihydropyrrolo[3,4-c]pyrazol-5(1H)-yl)-3,6-dimethyl-4-oxo-3,4-dihydroquinazolin-8-yl)ethyl)amino)-N-(methylsulfonyl) picolinamide], the IC50 in assay [1] (setting [3]) was below 250 nM; in assay [2] (setting [4]), 1000 to 5000 nM.

Turning to `Cc1cc([C@@H](C)Nc2ccc(Cl)nc2C(=O)NS(C)(=O)=O)c2nc(N3CCC(c4cnc(C)cn4)CC3)n(C)c(=O)c2c1` [Compound 272, (R)-6-chloro-3-((1-(3,6-dimethyl-2-(4-(5-methylpyrazin-2-yl)piperidin-1-yl)-4-oxo-3,4-dihydroquinazolin-8-yl)ethyl)amino)-N-(methylsulfonyl) picolinamide], the IC50 was below 250 nM in assay [1] (setting [3]) and 1000 to 5000 nM in assay [2] (setting [4]).

`COc1cn(C)nc1C1CCN(c2nc3c([C@@H](C)Nc4ccc(Cl)nc4C(=O)NS(C)(=O)=O)cc(C)cc3c(=O)n2C)CC1` [Compound 316, (R)-6-chloro-3-((1-(2-(4-(4-methoxy-1-methyl-1H-pyrazol-3-yl)piperidin-1-yl)-3,6-dimethyl-4-oxo-3,4-dihydroquinazolin-8-yl)ethyl)amino)-N-(methylsulfonyl) picolinamide]: the IC50 in assay [1] (setting [3]) is 250 to 500 nM; in assay [2] (setting [4]) it was 1000 to 5000 nM.

As to `Cc1cc([C@@H](C)Nc2ccc(Cl)nc2C(=O)NS(C)(=O)=O)c2nc(-c3ccnc(O[C@@H]4CCNCC4(F)F)c3)n(C)c(=O)c2c1` [Compound 808, 6-chloro-3-(((R)-1-(2-(2-(((R)-3,3-difluoropiperidin-4-yl)oxy)pyridin-4-yl)-3,6-dimethyl-4-oxo-3,4-dihydroquinazolin-8-yl)ethyl)amino)-N-(methylsulfonyl) picolinamide], the IC50 was 250 to 500 nM in assay [1] (setting [5]) and at least 5000 nM in assay [2] (setting [6]).

Regarding `COc1ccc(C2CCN(c3nc4c([C@@H](C)Nc5ccc(Cl)nc5C(=O)NS(C)(=O)=O)cc(C)cc4c(=O)n3C)CC2)cn1` [Compound 700, (R)-6-chloro-3-((1-(2-(4-(6-methoxypyridin-3-yl)piperidin-1-yl)-3,6-dimethyl-4-oxo-3,4-dihydroquinazolin-8-yl)ethyl)amino)-N-(methylsulfonyl) picolinamide], the IC50 in assay [1] (setting [5]) is 250 to 500 nM; in assay [2] (setting [6]), at least 5000 nM.

For `Cc1cc([C@@H](C)Nc2ccc(Cl)nc2C(=O)NS(C)(=O)=O)c2nc(N3CCC(c4ccnc(C)n4)CC3)n(C)c(=O)c2c1` [Compound 260, (R)-6-chloro-3-((1-(3,6-dimethyl-2-(4-(2-methylpyrimidin-4-yl)piperidin-1-yl)-4-oxo-3,4-dihydroquinazolin-8-yl)ethyl)amino)-N-(methylsulfonyl) picolinamide], the IC50 in assay [1] (setting [3]) was below 250 nM; in assay [2] (setting [4]), 1000 to 5000 nM.

As for `Cc1cc([C@@H](C)Nc2ccc(Cl)nc2C(=O)NS(C)(=O)=O)c2nc(N3CCC[C@@H](c4ccc(C)nc4)C3)n(C)c(=O)c2c1` (mixture of isomers) [Compound 215, 6-chloro-3-(((R)-1-(3,6-dimethyl-2-((RS)-3-(6-methylpyridin-3-yl)piperidin-1-yl)-4-oxo-3,4-dihydroquinazolin-8-yl)ethyl)amino)-N-(methylsulfonyl) picolinamide], the results for the IC50 in assay [1] (setting [3]) and in assay [2] (setting [4]) were below 250 nM and 1000 to 5000 nM, respectively.

Take `Cc1cc([C@@H](C)Nc2ccc(Cl)nc2C(=O)NS(=O)(=O)[C@H]2C[C@@H](O)C2)c2nc(N3Cc4ccc(F)cc4C3)n(C)c(=O)c2c1` (relative stereo) [Compound 337, 6-chloro-3-(((R)-1-(2-(5-fluoroisoindolin-2-yl)-3,6-dimethyl-4-oxo-3,4-dihydroquinazolin-8-yl)ethyl)amino)-N-(((1S*,3S*)-3-hydroxycyclobutyl)sulfonyl)picolinamide]: the IC50 was below 250 nM in assay [1] (setting [3]) and 1000 to 5000 nM in assay [2] (setting [4]).

For the molecule `COc1ccn(C2CCN(c3nc4c([C@@H](C)Nc5ccc(Cl)nc5C(=O)NS(C)(=O)=O)cc(C)cc4c(=O)n3C)CC2)n1` [Compound 317, (R)-6-chloro-3-((1-(2-(4-(3-methoxy-1H-pyrazol-1-yl)piperidin-1-yl)-3,6-dimethyl-4-oxo-3,4-dihydroquinazolin-8-yl)ethyl)amino)-N-(methylsulfonyl) picolinamide], the IC50 lay in the range of 250 to 500 nM in assay [1] (setting [3]) and 1000 to 5000 nM in assay [2] (setting [4]).

For `Cc1cc([C@@H](C)Nc2ccc(Cl)nc2C(=O)NS(C)(=O)=O)c2nc(N3Cc4cn(C5(C(F)(F)F)CC5)nc4C3)n(C)c(=O)c2c1` [Compound 185, (R)-6-chloro-3-((1-(3,6-dimethyl-4-oxo-2-(2-(1-(trifluoromethyl)cyclopropyl)-2,6-dihydropyrrolo[3,4-c]pyrazol-5(4H)-yl)-3,4-dihydroquinazolin-8-yl)ethyl)amino)-N-(methylsulfonyl) picolinamide], the values for the IC50 in assay [1] (setting [3]) and in assay [2] (setting [4]) were below 250 nM and 1000 to 5000 nM, respectively.

On to `Cc1cc([C@@H](C)Nc2ccc(Cl)nc2C(=O)NS(C)(=O)=O)c2nc(N3CCC(c4ccc[nH]c4=O)CC3)n(C)c(=O)c2c1` [Compound 706, (R)-6-chloro-3-((1-(3,6-dimethyl-4-oxo-2-(4-(2-oxo-1,2-dihydropyridin-3-yl)piperidin-1-yl)-3,4-dihydroquinazolin-8-yl)ethyl)amino)-N-(methylsulfonyl) picolinamide], for which the IC50 in assay [1] (setting [5]) was 500 to 1000 nM; in assay [2] (setting [6]), at least 5000 nM.

Take `Cc1cc([C@@H](C)Nc2ccc(Cl)nc2C(=O)NS(C)(=O)=O)c2nc(N3CCC(c4c(F)cnn4C(F)F)CC3)n(C)c(=O)c2c1` [Compound 464, (R)-6-chloro-3-((1-(2-(4-(1-(difluoromethyl)-4-fluoro-1H-pyrazol-5-yl)piperidin-1-yl)-3,6-dimethyl-4-oxo-3,4-dihydroquinazolin-8-yl)ethyl)amino)-N-(methylsulfonyl) picolinamide]: the IC50 in assay [1] (setting [5]) is 250 to 500 nM; in assay [2] (setting [6]), at least 5000 nM.

On to `Cc1cc([C@@H](C)Nc2ccc(Cl)nc2C(=O)NS(C)(=O)=O)c2nc(N3CCC[C@@H](Oc4cncnc4)C3)n(C)c(=O)c2c1` [Compound 360, 6-chloro-3-(((R)-1-(3,6-dimethyl-4-oxo-2-((R)-3-(pyrimidin-5-yloxy)piperidin-1-yl)-3,4-dihydroquinazolin-8-yl)ethyl)amino)-N-(methylsulfonyl) picolinamide], for which the results for the IC50 in assay [1] (setting [3]) and in assay [2] (setting [4]) were 250 to 500 nM and at least 5000 nM, respectively.

Regarding `Cc1cc([C@@H](C)Nc2ccc(Cl)nc2C(=O)NS(C)(=O)=O)c2nc(N3CCN4C[C@H](n5cc(C)cn5)C[C@H]4C3)n(C)c(=O)c2c1` [Compound 680, 6-chloro-3-(((R)-1-(3,6-dimethyl-2-((7R,8aS)-7-(4-methyl-1H-pyrazol-1-yl)hexahydropyrrolo[1,2-a]pyrazin-2(1H)-yl)-4-oxo-3,4-dihydroquinazolin-8-yl)ethyl)amino)-N-(methylsulfonyl) picolinamide], the IC50 is 250 to 500 nM in assay [1] (setting [5]) and at least 5000 nM in assay [2] (setting [6]).

Regarding `Cc1cc([C@@H](C)Nc2ccc(Cl)nc2C(=O)NS(C)(=O)=O)c2nc(N3CCC(c4ccn(C(F)F)n4)CC3)n(C)c(=O)c2c1` [Compound 413, (R)-6-chloro-3-((1-(2-(4-(1-(difluoromethyl)-1H-pyrazol-3-yl)piperidin-1-yl)-3,6-dimethyl-4-oxo-3,4-dihydroquinazolin-8-yl)ethyl)amino)-N-(methylsulfonyl) picolinamide], the figures for the IC50 in assay [1] (setting [3]) and in assay [2] (setting [4]) were below 250 nM and 1000 to 5000 nM, respectively.

Consider `Cc1cc([C@@H](C)Nc2ccc(Cl)nc2C(=O)NS(C)(=O)=O)c2nc(N3CCC[C@H](c4cn[nH]c4)C3)n(C)c(=O)c2c1` (mixture of isomers) [Compound 168, 3-(((R)-1-(2-((RS)-3-(1H-pyrazol-4-yl)piperidin-1-yl)-3,6-dimethyl-4-oxo-3,4-dihydroquinazolin-8-yl)ethyl)amino)-6-chloro-N-(methylsulfonyl) picolinamide], for which the IC50 was below 250 nM in assay [1] (setting [3]) and 1000 to 5000 nM in assay [2] (setting [4]).

For the molecule `Cc1cc([C@@H](C)Nc2ccc(Cl)nc2C(=O)NS(C)(=O)=O)c2nc(N3CCN(c4ncc(C#N)cc4F)CC3)n(C)c(=O)c2c1` [Compound 262, (R)-6-chloro-3-((1-(2-(4-(5-cyano-3-fluoropyridin-2-yl)piperazin-1-yl)-3,6-dimethyl-4-oxo-3,4-dihydroquinazolin-8-yl)ethyl)amino)-N-(methylsulfonyl) picolinamide], the IC50 in assay [1] (setting [3]) was below 250 nM; in assay [2] (setting [4]), 1000 to 5000 nM.

For the molecule `Cc1cc([C@@H](C)Nc2ccc(Cl)nc2C(=O)NS(C)(=O)=O)c2nc(N3CCc4nn(CC5COC5)cc4C3)n(C)c(=O)c2c1` [Compound 289, (R)-6-chloro-3-((1-(3,6-dimethyl-2-(2-(oxetan-3-ylmethyl)-2,4,6,7-tetrahydro-5H-pyrazolo[4,3-c]pyridin-5-yl)-4-oxo-3,4-dihydroquinazolin-8-yl)ethyl)amino)-N-(methylsulfonyl) picolinamide], the values for the IC50 in assay [1] (setting [3]) and in assay [2] (setting [4]) were below 250 nM and at least 5000 nM, respectively.
